Literature values as cited in patent publication US6342520B1, “Locally injectable chemotherapeutics” (priority 2000, dated 2002).

Details: Phase II clinical trials, administration by general circulation

In the case of `CC(=O)OC[C@]12CCC(C)=C[C@H]1O[C@@H]1[C@H](O)[C@@H](OC(C)=O)[C@@]2(C)[C@]12CO2` [Anguidine], the hematologic toxicity is given as “considerable hematologic toxicity” and the “overall tumor response rate” value is given as “low”.
